The subject of one data set is HSV-2. The experiment in a line: plaque reduction, HSV-2 in Vero cells. The format is cell-based, Herpes simplex virus type 2. As to conditions: Human alphaherpesvirus 2; HSV-2, Vero, plaque reduction 50%; read-out: MIC50. On the procedure: (§1) After the adsorption period, the infected cell monolayers were treated in duplicate with serial dilutions of the test compound. Duplicate cell controls containing medium alone and virus controls containing medium and virus were run simultaneously with the test compound. […] Plaques visible to the unaided eye were counted and the mean number of plaques in the duplicate wells for each compound concentration tested and for the untreated, virus infected controls were determined.

Another data set concerns mice. The experiment in a line: toxicity in uninfected mice (Herpesvirus 1 study). The format is in vivo, mouse. As to conditions: 7 doses. The procedure: Four-week-old female outbred Swiss mice (CD 1, VAF+, Charles River Labs) were housed 5 per Microisolator® cage. Feed and water were supplied ad libitum. Fifteen mice were randomly assigned to each of the following treatment groups:
Test compounds were diluted in 0.4% carboxymethylcellulose (CMC) prepared in phosphate buffered saline (PBS) at concentrations consistent with dosing at 0.1 ml per 10 q of body weight. Compounds were administered subcutaneously once daily for a total of 7 doses. Five mice in each treatment group served as uninfected toxicity controls. The remaining ten mice in each group were challenged intraperitoneally with an LD90 dose of the twelfth in vivo passage of Herpesvirus 1 (strain 123). Virus challenge was administered two hours after the first dose of compound was given. Mortality was monitored daily for 21 days. The mortality rates, average day of death, geometric mean time to death and virus rating were calculated for each treatment group.

Another data set has as its system Vero cells. As to conditions: monkey.
Data set [1] relates to Herpes simplex type 1 (HSV-1) strain E-377. Description: CPE-inhibition assay, HSV-1 strain E-377 in Vero cells.
The next data set is described as follows: in vitro. Conditions: human, human foreskin fibroblasts, MTT Assay.
A further data set concerns HSV-1(E-377). Description: plaque reduction, HSV-1(E-377) in Vero cells. As to conditions: Human alphaherpesvirus 1, plaque reduction 50%, read-out: MIC50. Type of data set: cell-based, Herpes simplex virus type 1. The procedure:
as §1

For a further data set, the system named is HSV-1(123). The experiment in a line: plaque reduction, HSV-1(123) in Vero cells. Type of data set: cell-based, Herpes simplex virus type 1. As to conditions: Human alphaherpesvirus 1, plaque reduction 50%, read-out: MIC50. The procedure:
as §1

In data set [2] the test system is Human Immunodificiency Virus (HIV-1). The experiment in a line: inhibition of HIV-1 replication in human PBMC (RT activity). As to conditions: Human immunodeficiency virus 1; HIV-1, PBMC, median-effect method. The format is cell-based. On the procedure:
Human peripheral blood mononuclear cells (PBMC) from healthy HIV-1 seronegative and hepatitis B virus seroneqative donors were isolated by Ficoll-Hypague discontinuous gradient centrifugation at 1,000×g for 30 minutes, washed twice in phosphate buffered saline (pH 7.2; PBS), and pelleted at 300×g for 10 minutes. Before infection, the cells were stimulated by phytohemagglutinin (PHA) at a concentration of 16.7 ug/ml for three days in RPMI 1640 medium supplemented with 15% heat-inactivated fetal calf serum, 1.5 mM L-glutamine, penicillin (100 U/ml), streptomycin (100 ug/ml) and 4 mM sodium bicarbonate buffer.
Uninfected PHA stimulated human PBMC were uniformly distributed among 25 cm^2 flasks to give a 5 ml suspension containing about 2×10^6 cells/ml. Suitable dilutions of virus were added to infect the cultures. The mean reverse transcriptase (RT) activity of the inocula was 60,000 dpm RT activity/10^6 cells. […]
The RT assay was perfromed in 96-well microtiter plates as described by Spira, et al. (J. Clin. Microbiol. 25 97 (1987)). […] Four ml of scintillation fluid (Econofluor, NEN Research Products, Boston, Ma.) were added and the amount of radioactivity in each sample was determined using a Packard Tri Carb liquid scintillation analyzer (model 2,000CA). […]

Another data set concerns Varicella-Zoster Virus. The experiment in a line: microbe, parasite or virus in culture. The format is cell-based, Varicella-Zoster virus (clinical isolate DM625). As to conditions: Human alphaherpesvirus 3, Fibroblast, 120 h.
Data set [3] concerns P388D1: Lymphocytic Leukemia. Description: cytotoxic activity against cultured tumor cells, P388-D1. Type of data set: cell-based. As to conditions: Mus musculus, P388D1, 72 h; P388-D1, 3 days, MTT.

Values after ≈ are worked out from the molar mass of the structure shown. Values joined by “and” are separate entries in the source; they are usually repeats but may differ in a detail not shown here. Identical values can stand only once.

A word on the viability: it is a read-out of living cells in per cent, often relative to untreated cells. As a reminder, the IC50 is the concentration needed to halve the response being measured. `Nc1nc2c(ncn2C2CC(CO)C2CO)c(=O)[nH]1` (stereo not drawn) [Example 1I, 9-(2',3'-Bis(hydroxymethyl)cyclobutyl)guanine]: the EC50 with HSV-2 was 1 µg/mL (≈ 3.77 µM); in data set [1] (Human alphaherpesvirus 1, Vero, read-out: ID50 (minimum drug concentration that inhibited the CPE by 50%), HSV-1 (E-377), Vero), 1.5 µg/mL (≈ 5.65 µM); in the data set on HSV-1(E-377), 0.5 µg/mL (≈ 1.88 µM); with HSV-1(123), 1 µg/mL (≈ 3.77 µM); in data set [2], 980 nM; in the data set on Varicella-Zoster Virus (VZV plaque formation, human foreskin fibroblasts, read-out: MIC50), 1.4 µg/mL (≈ 5.28 µM). The “No. Dead/No. Uninfected” value is reported as 0/5 with mice (3.2 mg/kg s.c. once daily), 0/5 in the data set on mice (10 mg/kg s.c. once daily) and 0/3 in the data set on mice (32 mg/kg s.c. once daily). Further, the “MTC (minimum drug concentration causing any cytotoxicity)” value in the data set with Vero cells turned out to be 320 µg/mL. Moreover, the “TI (Therapeutic Index, MTC/ID50)” value in data set [1] (HSV-1 (E-377), Vero) was 213 and 129. Moreover, the viability in the data set “in vitro” (3.2 ug/ml) was found to be 79%; in “in vitro” (10 ug/ml), 76%; in the data set “in vitro” (32 ug/ml) it was 72%; in the data set “in vitro” (100 ug/ml) it was 62%. For the same compound, the inhibition at 0.1 µg/mL with Varicella-Zoster Virus (VZV, 0.1 ug/ml, read-out: Plaque Reduction) was 11.5%. In addition, the inhibition at 0.32 µg/mL with Varicella-Zoster Virus (VZV, 0.32 ug/ml, read-out: Plaque Reduction) is 18%. In the data set on Varicella-Zoster Virus (VZV, 1.0 ug/ml, read-out: Plaque Reduction), the inhibition at 1 µg/mL amounted to 47.1%. In addition, the inhibition at 3.2 µg/mL in the data set with Varicella-Zoster Virus (VZV, 3.2 ug/ml, read-out: Plaque Reduction) came to 97.7%. Moreover, in the data set on Varicella-Zoster Virus (VZV, 10 ug/ml, read-out: Plaque Reduction), the inhibition at 10 µg/mL was determined as 100%. Further, in the data set with Varicella-Zoster Virus (VZV, 32 ug/ml, read-out: Plaque Reduction), the inhibition at 32 µg/mL came to 100%. Besides, the inhibition at 100 µg/mL in the data set with Varicella-Zoster Virus (read-out: Plaque Reduction) is 100%. In addition, the IC50 in data set [3] amounted to 2.8 µg/mL (≈ 10.6 µM).
Turning to `Nc1ncnc2c1ncn2C1CC(CO)C1CO` (stereo not drawn) [Example 4C, 9-(2',3'-Bis(hydroxymethyl)cyclobutyl)adenine], the “TI (Therapeutic Index, MTC/ID50)” value in data set [1] (HSV-1 (E-377), Vero) is 3.7 and > 2.2. For the same compound, in [1] (HSV-1 (E-377), Vero, >1.0 definite, 0.5-0.9 marginal to moderate, <0.5 no significant activity), the “VR (Virus Rating)” value was 2.1. Besides, in data set [2], the EC50 was 960 nM. This compound displayed an IC50 in data set [3] of 0.64 µg/mL (≈ 2.57 µM).
